These results are taken from PMC7515716 (2020).

Assay [1] deals with xpt/pbuE*6U guanine riboswitch (RNA, riboswitch) AAAUUAAAUAGCUAUUAUCACGAUUUUUAUAAUCGCGUGGAUAUGGCACGCAAGUUUCUACCGGGCACCGUAAAUGUCCGACUAAAAAUCCUGAUUACAAAAUUUGUUUAUGACAUUUUUUGUAAUCAGGAUUUUUUAUUUAUCAAAACAUUUAAGUAAAGGAGUUUGUUAUGUUUUUUUUGGCCAGUGAAUUCGAGCUCGGUACCCGGGGAUCCUCUAGAAAUAUGGAUUACUUGGUAGAACAGCAAUCUACUCGACCUGCAGGCAUGCAAGCUUGGCGUAAUCAUGGUCAUAGCUGUUUCCUGUGUUUAUCCGCUCACAAUUCCACACAACAUACGAGCCGGAAGCAUAAAG
As to the kind of experiment: SPRINT: multiple-turnover transcription read-through, Cas13a fluorescence. Particulars: 70 mM Na+ (NaCl), 2.5 mM Mg2+.

In assay [2] the test system is ribD/pbuE*7U FMN riboswitch (RNA, riboswitch) AAAUUAAAUAGCUAUUAUCACGAUUUUUCGGGGCAGGGUGGAAAUCCCGACCGGCGGUAGUAAAGCACAUUUGCUUUAGAGCCCGUGACCCGUGUGCAUAAGCACGCGGUGGAUUCAGUUUAAGCUGAAGCCGACAGUGAAAGUCUGGAUGGGAGAAAAAUCCUGAUUACAAAAUUUGUUUAUGACAUUUUUUGUAAUCAGGAUUUUUUUAUUUAUCAAAACAUUUAAGUAAAGGAGUUUGUUAUGUUUUUUUUGGCCAGUGAAUUCGAGCUCGGUACCCGGGGAUCCUCUAGAAAUAUGGAUUACUUGGUAGAACAGCAAUCUACUCGACCUGCAGGCAUGCAAGCUUGGCGUAAUCAUGGUCAUAGCUGUUUCCUGUGUUUAUCCGCUCACAAUUCCACACAACAUACGAGCCGGAAGCAUAAAG
Described as above. Conditions: 70 mM Na+ (NaCl), 10 mM Mg2+; SPRINT buffer, 37 °C; low-affinity response.

For the molecule `CNc1nc2[nH]cnc2c(=O)[nH]1`, the binding result in assay [1] is listed as “weak”.

With `Cc1cc2nc3c(=O)[nH]c(=O)nc-3n(C[C@H](O)[C@H](O)[C@H](O)COP(=O)(O)OP(=O)(O)OC[C@H]3O[C@@H](n4cnc5c(N)ncnc54)[C@H](O)[C@@H]3O)c2cc1C`, the binding result in assay [2] is “weak”.
